Biological target: T1, human TLR7 (Homo sapiens, UniProt Q9NYK1)
T1 construct: HA; host or cells: 293XL-hTLR7-HA (HEK293)
T1 sequence (Q9NYK1 27-1049): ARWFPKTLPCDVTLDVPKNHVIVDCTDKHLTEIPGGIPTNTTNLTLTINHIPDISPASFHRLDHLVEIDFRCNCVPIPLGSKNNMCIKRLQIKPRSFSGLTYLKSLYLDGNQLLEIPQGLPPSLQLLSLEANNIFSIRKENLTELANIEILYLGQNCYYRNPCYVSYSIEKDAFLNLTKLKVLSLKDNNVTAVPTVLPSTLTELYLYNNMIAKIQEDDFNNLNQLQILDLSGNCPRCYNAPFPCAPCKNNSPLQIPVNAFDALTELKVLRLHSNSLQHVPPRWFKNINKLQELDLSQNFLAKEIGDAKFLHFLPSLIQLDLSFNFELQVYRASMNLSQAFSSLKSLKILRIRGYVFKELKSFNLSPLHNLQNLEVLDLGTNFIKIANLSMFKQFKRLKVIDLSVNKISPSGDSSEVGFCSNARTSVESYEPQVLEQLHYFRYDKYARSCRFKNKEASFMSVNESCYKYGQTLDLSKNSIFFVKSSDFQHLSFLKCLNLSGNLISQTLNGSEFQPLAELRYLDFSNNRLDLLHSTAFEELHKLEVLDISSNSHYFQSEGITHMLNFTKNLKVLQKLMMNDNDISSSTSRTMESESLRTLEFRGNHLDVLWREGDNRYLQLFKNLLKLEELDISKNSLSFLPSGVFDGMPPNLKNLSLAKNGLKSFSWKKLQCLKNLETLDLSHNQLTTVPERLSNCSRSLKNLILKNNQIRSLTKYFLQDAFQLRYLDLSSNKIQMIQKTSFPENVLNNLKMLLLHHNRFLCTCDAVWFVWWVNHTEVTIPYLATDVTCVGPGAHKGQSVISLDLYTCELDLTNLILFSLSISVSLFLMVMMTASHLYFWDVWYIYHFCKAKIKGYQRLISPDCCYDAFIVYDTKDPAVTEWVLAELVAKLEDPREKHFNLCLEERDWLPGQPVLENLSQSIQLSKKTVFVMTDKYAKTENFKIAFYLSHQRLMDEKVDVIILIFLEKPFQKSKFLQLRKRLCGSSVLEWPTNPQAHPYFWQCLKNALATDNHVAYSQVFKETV
Assay: HEK-TLR7 NF-κB-luciferase reporter, R848 stimulation
Format: cell-based
Details: MOE-modified ASO at 100 nM; averaged NF-κB-Luciferase relative to R848 condition

Sequence | TLR7 100 nM
GTCCTTGCACGTGGCTTCGT (antisense; 2'-MOE modified, pattern not given here) [EGFR-1013 MOE] | 0.216
GTCTTGGCTTCGTGGAGCAG (antisense; 2'-MOE modified, pattern not given here) [MB21D1-520 MOE] | 0.372
GTGTCCTTGCACGTGGCTTC (antisense; 2'-MOE modified, pattern not given here) [EGFR-1015 MOE] | 0.377
GTGTCTTCATCGGCCCTGCC (antisense; 2'-MOE modified, pattern not given here) [CAMSAP1-2113 MOE] | 0.371
TAGGCACTTTGCCTCCTTCT (antisense; 2'-MOE modified, pattern not given here) [EGFR-2859 MOE] | 0.455
TAGTCAAGGGCATATCCTAC (antisense; 2'-MOE modified, pattern not given here) [HPRT-732 MOE] | 0.423
TCAAAGGACTGAGGAAAGGG (antisense; 2'-MOE modified, pattern not given here) [CAMSAP1-6273 MOE] | 0.397
TCCAACACTTCGTGGGGTCC (antisense; 2'-MOE modified, pattern not given here) [HPRT-667 MOE] | 0.929
TCGCACTTCAGTCTGAGCAG (antisense; 2'-MOE modified, pattern not given here) [MB21D1-719 MOE] | 0.574
TGTCCTTGCACGTGGCTTCG (antisense; 2'-MOE modified, pattern not given here) [EGFR-1014 MOE] | 0.029
TGTCTTCATCGGCCCTGCCT (antisense; 2'-MOE modified, pattern not given here) [CAMSAP1-2112 MOE] | 0.396
TGTGATGGCCTCCCATCTCC (antisense; 2'-MOE modified, pattern not given here) [HPRT-332 MOE] | 0.312
TTCTGCAGCTTCCTTGTCCT (antisense; 2'-MOE modified, pattern not given here) [CTNN2B-2136 MOE] | 0.183
TTGCACACTTCGTACCCAAA (antisense; 2'-MOE modified, pattern not given here) [CAMSAP1-4915 MOE] | 0.418
TTGCCATGCTGGCTCGGACT (antisense; 2'-MOE modified, pattern not given here) [CAMSAP1-2584 MOE] | 0.445
TTGGCTCGGCTTGCCTACTT (antisense; 2'-MOE modified, pattern not given here) [CAMSAP1-5594 MOE] | 0.523

Same assay, conditions: MOE-modified ASO at 500 nM; averaged NF-κB-Luciferase relative to R848 condition

Sequence | TLR7 500 nM
GTCCTTGCACGTGGCTTCGT (antisense; 2'-MOE modified, pattern not given here) [EGFR-1013 MOE] | 0.088
GTCTTGGCTTCGTGGAGCAG (antisense; 2'-MOE modified, pattern not given here) [MB21D1-520 MOE] | 0.095
GTGTCCTTGCACGTGGCTTC (antisense; 2'-MOE modified, pattern not given here) [EGFR-1015 MOE] | 0.212
GTGTCTTCATCGGCCCTGCC (antisense; 2'-MOE modified, pattern not given here) [CAMSAP1-2113 MOE] | 0.132
TAGGCACTTTGCCTCCTTCT (antisense; 2'-MOE modified, pattern not given here) [EGFR-2859 MOE] | 0.205
TAGTCAAGGGCATATCCTAC (antisense; 2'-MOE modified, pattern not given here) [HPRT-732 MOE] | 0.191
TCAAAGGACTGAGGAAAGGG (antisense; 2'-MOE modified, pattern not given here) [CAMSAP1-6273 MOE] | 0.189
TCCAACACTTCGTGGGGTCC (antisense; 2'-MOE modified, pattern not given here) [HPRT-667 MOE] | 0.578
TCGCACTTCAGTCTGAGCAG (antisense; 2'-MOE modified, pattern not given here) [MB21D1-719 MOE] | 0.241
TGTCCTTGCACGTGGCTTCG (antisense; 2'-MOE modified, pattern not given here) [EGFR-1014 MOE] | 0.057
TGTCTTCATCGGCCCTGCCT (antisense; 2'-MOE modified, pattern not given here) [CAMSAP1-2112 MOE] | 0.185
TGTGATGGCCTCCCATCTCC (antisense; 2'-MOE modified, pattern not given here) [HPRT-332 MOE] | 0.238
TTCTGCAGCTTCCTTGTCCT (antisense; 2'-MOE modified, pattern not given here) [CTNN2B-2136 MOE] | 0.059
TTGCACACTTCGTACCCAAA (antisense; 2'-MOE modified, pattern not given here) [CAMSAP1-4915 MOE] | 0.233
TTGCCATGCTGGCTCGGACT (antisense; 2'-MOE modified, pattern not given here) [CAMSAP1-2584 MOE] | 0.138
TTGGCTCGGCTTGCCTACTT (antisense; 2'-MOE modified, pattern not given here) [CAMSAP1-5594 MOE] | 0.204

Source: US20240384268A1, “Oligonucleotides” (Hudson Institute of Medical Research, priority 2021, published 2024)
